Reference: ChEMBL document CHEMBL1201862, “PubChem BioAssay data set” (2004)
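In this assay, cells in 96-well plates receive the compound at five concentrations for 48 hours. Endpoints are linearly interpolated between the surrounding concentrations. GI50 is the concentration that inhibits growth by half.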 Active and inactive are the calls of the source. No stated cut-off is given here; in the data, active = GI50 up to about 1.1 µM and inactive = higher.

Tests used:
Experiment in all cases: NCI anticancer screen, dose series, 48 h
MOLT-4 = test system: MOLT-4
NCI-H23 = test system: NCI-H23
RXF 393 = test system: RXF 393
HCT-116 = test system: HCT-116
KM-20L2 = test system: KM-20L2
Malme-3M = test system: Malme-3M
OVCAR-3 = test system: OVCAR-3
UACC-257 = test system: UACC-257
BT-549 = test system: BT-549
HL-60 = test system: HL-60
SF-295 = test system: SF-295
DU-145 = test system: DU-145
NCI-H226 = test system: NCI-H226
SNB-19 = test system: SNB-19
OVCAR-4 = test system: OVCAR-4
KM12 = test system: KM12
XF498 = test system: XF498
M19-MEL = test system: M19-MEL
PC-3 = test system: PC-3
DMS-114 = test system: DMS-114
HCT-15 = test system: HCT-15
HOP-62 = test system: HOP-62
K562 = test system: K562
OVCAR-5 = test system: OVCAR-5
CCRF-CEM = test system: CCRF-CEM
NCI-H522 = test system: NCI-H522
HOP-92 = test system: HOP-92
DLD-1 = test system: DLD-1
EKVX = test system: EKVX
NCI/ADR-RES = test system: NCI/ADR-RES
RPMI-8226 = test system: RPMI-8226
HT-29 = test system: HT-29
ACHN = test system: ACHN
HCC 2998 = test system: HCC 2998
SNB-75 = test system: SNB-75
LXFL 529 = test system: LXFL 529
TK-10 = test system: TK-10
SF-268 = test system: SF-268
OVCAR-8 = test system: OVCAR-8
IGROV-1 = test system: IGROV-1
A549 = test system: A549
LOX IMVI = test system: LOX IMVI
SW-620 = test system: SW-620
SK-MEL-5 = test system: SK-MEL-5
UACC-62 = test system: UACC-62
COLO 205 = test system: COLO 205
SK-MEL-28 = test system: SK-MEL-28
786-0 = test system: 786-0
SK-MEL-2 = test system: SK-MEL-2
CAKI-1 = test system: CAKI-1
UO-31 = test system: UO-31
DMS-273 = test system: DMS-273
NCI-H460 = test system: NCI-H460
SK-OV-3 = test system: SK-OV-3
M14 = test system: M14
SF-539 = test system: SF-539
SN12C = test system: SN12C
A498 = test system: A498

## CCc1ccc(NCc2cc(OC)c(OC)c(OC)c2)cc1
MOLT-4
  GI50: 0.159 µM (active)
NCI-H23
  GI50: 0.532 µM (active)
RXF 393
  GI50: 0.224 µM (active)
HCT-116
  GI50: 0.122 µM (active)
KM-20L2
  GI50: 0.388 µM (active)
Malme-3M
  GI50: 0.256 µM (active)
OVCAR-3
  GI50: 0.123 µM (active)
UACC-257
  GI50: 17.2 µM (inactive)
BT-549
  GI50: < 0.01 µM (active)
HL-60
  GI50: 0.0603 µM (active)
SF-295
  GI50: 0.109 µM (active)
DU-145
  GI50: 0.399 µM (active)
NCI-H226
  GI50: 4.65 µM (inactive)
SNB-19
  GI50: 0.902 µM (active)
OVCAR-4
  GI50: 26.7 µM (inactive)
KM12
  GI50: 0.0537 µM (active)
XF498
  GI50: 1.69 µM (inactive)
M19-MEL
  GI50: 0.579 µM (active)
PC-3
  GI50: 0.186 µM (active)
DMS-114
  GI50: 0.586 µM (active)
HCT-15
  GI50: 0.0847 µM
HOP-62
  GI50: 0.366 µM (active)
K562
  GI50: 0.0728 µM (active)
OVCAR-5
  GI50: 4.9 µM (inactive)
CCRF-CEM
  GI50: 0.158 µM (active)
NCI-H522
  GI50: 0.109 µM (active)
HOP-92
  GI50: 1.09 µM (active)
DLD-1
  GI50: 0.592 µM (active)
EKVX
  GI50: 4.95 µM (inactive)
NCI/ADR-RES
  GI50: < 0.0416 µM (active)
RPMI-8226
  GI50: 0.303 µM (active)
HT-29
  GI50: 0.105 µM (active)
ACHN
  GI50: 3.51 µM (inactive)

## CCCCCC1C2C(=O)NC(=O)C1C(=O)NC2=O (stereo unspecified)
MOLT-4
  GI50: > 100 µM (inactive)
NCI-H23
  GI50: > 100 µM (inactive)
HCC 2998
  GI50: > 100 µM (inactive)
RXF 393
  GI50: > 100 µM (inactive)
SNB-75
  GI50: > 100 µM (inactive)
LXFL 529
  GI50: > 100 µM (inactive)
KM-20L2
  GI50: > 100 µM (inactive)
TK-10
  GI50: > 100 µM (inactive)
Malme-3M
  GI50: > 100 µM (inactive)
SF-268
  GI50: > 100 µM (inactive)
OVCAR-3
  GI50: > 100 µM (inactive)
OVCAR-8
  GI50: > 100 µM (inactive)
IGROV-1
  GI50: > 100 µM (inactive)
A549
  GI50: > 100 µM (inactive)
UACC-257
  GI50: > 100 µM (inactive)
LOX IMVI
  GI50: > 100 µM (inactive)
HL-60
  GI50: > 100 µM (inactive)
SF-295
  GI50: > 100 µM (inactive)
NCI-H226
  GI50: > 100 µM (inactive)
SNB-19
  GI50: > 100 µM (inactive)
OVCAR-4
  GI50: > 100 µM (inactive)
KM12
  GI50: > 100 µM (inactive)
SW-620
  GI50: > 100 µM (inactive)
XF498
  GI50: > 100 µM (inactive)
M19-MEL
  GI50: > 100 µM (inactive)
SK-MEL-5
  GI50: > 100 µM (inactive)
UACC-62
  GI50: > 100 µM (inactive)
COLO 205
  GI50: > 100 µM (inactive)
DMS-114
  GI50: > 100 µM (inactive)
HCT-15
  GI50: > 100 µM
SK-MEL-28
  GI50: > 100 µM (inactive)
HOP-62
  GI50: > 100 µM (inactive)
786-0
  GI50: > 100 µM (inactive)
K562
  GI50: > 100 µM (inactive)
OVCAR-5
  GI50: > 100 µM (inactive)
CCRF-CEM
  GI50: > 100 µM (inactive)
SK-MEL-2
  GI50: > 100 µM (inactive)
NCI-H522
  GI50: > 100 µM (inactive)
HOP-92
  GI50: > 100 µM (inactive)
DLD-1
  GI50: > 100 µM (inactive)
CAKI-1
  GI50: > 100 µM (inactive)
EKVX
  GI50: > 100 µM (inactive)
RPMI-8226
  GI50: > 100 µM (inactive)
UO-31
  GI50: > 100 µM (inactive)
DMS-273
  GI50: > 100 µM (inactive)
NCI-H460
  GI50: > 100 µM (inactive)
SK-OV-3
  GI50: > 100 µM (inactive)
HT-29
  GI50: > 100 µM (inactive)
M14
  GI50: > 100 µM (inactive)
ACHN
  GI50: > 100 µM (inactive)
SF-539
  GI50: > 100 µM (inactive)
SN12C
  GI50: > 100 µM (inactive)
A498
  GI50: > 100 µM (inactive)
